Where a SMILES comes first, the peptide text is derived from it. Bridges are numbered along the chain shown (N, C = ends). [ ]: non-standard residue; d: D form. The star is where a group is joined. ξ: configuration not given here. Phe(3,4-Cl2) = N[C@@H](Cc1ccc(Cl)c(Cl)c1)C(=O)O; Phe(3-CF3) = N[C@@H](Cc1cccc(C(F)(F)F)c1)C(=O)O; Phe(4-CF3) = N[C@@H](Cc1ccc(C(F)(F)F)cc1)C(=O)O; Ala(morpholin-4-yl) = N[C@@H](CN1CCOCC1)C(=O)O; Phe(4-COOH) = N[C@@H](Cc1ccc(C(=O)O)cc1)C(=O)O; Bip = N[C@@H](Cc1ccc(-c2ccccc2)cc1)C(=O)O; Phe(3-Cl) = N[C@@H](Cc1cccc(Cl)c1)C(=O)O; Phe(3-Me) = Cc1cccc(C[C@H](N)C(=O)O)c1; Bta = N[C@@H](Cc1csc2ccccc12)C(=O)O; Val(3-OH) = CC(C)(O)[C@H](N)C(=O)O; 3Pal = N[C@@H](Cc1cccnc1)C(=O)O; 4Pal = N[C@@H](Cc1ccncc1)C(=O)O; Cha = N[C@@H](CC1CCCCC1)C(=O)O; Cit = NC(=O)NCCC[C@H](N)C(=O)O; dCha = N[C@H](CC1CCCCC1)C(=O)O; Thr(3ξ) = CC(O)[C@H](N)C(=O)O; Carboxymethyl = O=C(O)C*; Orn = NCCC[C@H](N)C(=O)O; Pra = C#CC[C@H](N)C(=O)O; Dab = NCC[C@H](N)C(=O)O; Dap = NC[C@H](N)C(=O)O; NH(CH2)3NH2 = NCCCN*
biological target: T1, human PD-1 / PD-L1-Ig binding on Jurkat cell line over-expressing human PD-1 (Jurkat-PD-1) (Homo sapiens, UniProt Q15116); test: Jurkat-PD-1 Cell Binding High-Content Screening Assay (CBA); type: cell-based; conditions: Jurkat HPD1_PDL1 IC50, Jurkat-PD-1 cells, PE-labeled PD-L1-Ig 20 nM final
T1 construct: expressed in transfected cells; host or cells: Jurkat
Method in brief: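 Binding of fluorescent PD-L1-Ig (phycoerythrin linked via the Ig tag, 20 nM final) to PD-1-overexpressing Jurkat cells was imaged after a 2 h, 37° C compound pretreatment and 1 hour ligand incubation.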

T1 sequence (Q15116 25-288): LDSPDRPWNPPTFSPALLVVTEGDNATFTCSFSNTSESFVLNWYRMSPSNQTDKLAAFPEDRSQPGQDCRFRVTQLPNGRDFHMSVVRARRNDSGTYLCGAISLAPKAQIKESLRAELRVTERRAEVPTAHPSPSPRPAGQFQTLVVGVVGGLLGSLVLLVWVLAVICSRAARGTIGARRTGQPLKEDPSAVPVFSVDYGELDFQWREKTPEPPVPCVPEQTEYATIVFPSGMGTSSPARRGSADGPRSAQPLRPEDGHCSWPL

Row | SMILES | IC50 [nM]
1 | CC(C)C[C@@H]1NC(=O)[C@H](Cc2c[nH]c3ccccc23)NC(=O)[C@H](CC(=O)O)NC(=O)[C@H](Cc2ccc(OCC(=O)O)cc2)NC(=O)[C@H](CN)NC(=O)CSC[C@@H](C(=O)NCC(N)=O)NC(=O)[C@H](CO)NC(=O)[C@H](C(C)C)NC(=O)[C@H](CC2CCCCC2)NC(=O)[C@H](CC(N)=O)NC(=O)[C@@H](CC(C)C)NC(=O)[C@H](CCCN)NC(=O)[C@H](C(C)C)NC(=O)[C@H](Cc2ccc(-c3ccccc3)cc2)NC1=O [Compound 1336] ({CH2CO}-[Dap]Y(Carboxymethyl)DWL[Bip]V[Orn][dL]N[Cha]VSCG-NH2; thioether N-14) | 21.2

same assay, conditions: Jurkat-PD-1 cells, PE-labeled PD-L1-Ig 20 nM final; read-out: Jurkat HPD1_PDL1 IC50

Row | SMILES | IC50 [nM]
2 | Cc1cccc(C[C@@H]2NC(=O)[C@H](CC(=O)O)NC(=O)[C@H](Cc3ccc(OCC(=O)O)cc3)NC(=O)[C@H](CCN)NC(=O)CSC[C@@H](C(=O)N[C@@H](CO)C(=O)NCCCN)NC(=O)[C@H](C(C)O)NC(=O)[C@H](C(C)(C)O)NC(=O)[C@H](CC3CCCCC3)NC(=O)[C@H](Cc3cnc[nH]3)NC(=O)[C@@H](CC(C)C)NC(=O)[C@H](CCCN)NC(=O)[C@H](Cc3ccc(OCC(=O)O)cc3)NC(=O)[C@H](Cc3ccc(-c4ccccc4)cc3)NC(=O)[C@H](Cc3ccc(OCC(=O)O)cc3)NC2=O)c1 (stereo partly drawn) [Compound 2648] ({CH2CO}-[Dab]Y(Carboxymethyl)D[Phe(3-Me)]Y(Carboxymethyl)[Bip]Y(Carboxymethyl)[Orn][dL]H[Cha][Val(3-OH)][Thr(3ξ)]CS-{NH(CH2)3NH2}; thioether N-14) | 98
3 | CC(C)C[C@H]1NC(=O)[C@H](CN)NC(=O)[C@H](C(C)C)NC(=O)[C@H](Cc2ccc(-c3ccccc3)cc2)NC(=O)[C@H](C(C)C)NC(=O)[C@H](Cc2c[nH]c3ccccc23)NC(=O)[C@H](CC(=O)O)NC(=O)[C@H](Cc2ccncc2)NC(=O)[C@H](Cc2ccc(OCC(=O)O)cc2)NC(=O)CSC[C@@H](C(=O)NCC(N)=O)NC(=O)[C@H](CO)NC(=O)[C@H](C(C)C)NC(=O)[C@H](CC2CCCCC2)NC(=O)[C@H](CC(N)=O)NC1=O [Compound 1456] ({CH2CO}-Y(Carboxymethyl)[4Pal]DWV[Bip]V[Dap][dL]N[Cha]VSCG-NH2; thioether N-14) | 6.1
4 | CC(C)[C@@H]1NC(=O)[C@H](Cc2c[nH]c3ccccc23)NC(=O)[C@H](CC(=O)O)NC(=O)[C@H](Cc2ccc(O)cc2)NC(=O)[C@H](CC(N)=O)NC(=O)CSC[C@@H](C(=O)N[C@@H](C)C(N)=O)NC(=O)[C@H]([C@@H](C)O)NC(=O)[C@H](C(C)C)NC(=O)[C@H](CC2CCCCC2)NC(=O)[C@H](CCN)NC(=O)[C@@H](CC2CCCCC2)NC(=O)[C@H](CCCN)NC(=O)[C@H](C(C)C)NC(=O)[C@H](Cc2ccc(-c3ccccc3)cc2)NC1=O [Compound 1639] ({CH2CO}-NYDWV[Bip]V[Orn][dCha][Dab][Cha]VTCA-NH2; thioether N-14) | 35.8
5 | CC(C)C[C@H]1NC(=O)[C@H](CCCN)NC(=O)[C@H](C(C)C)NC(=O)[C@H](Cc2ccc(-c3ccccc3)cc2)NC(=O)[C@H](C(C)C)NC(=O)[C@H](Cc2cccc(Cl)c2)NC(=O)[C@H](CC(=O)O)NC(=O)[C@H](Cc2ccncc2)NC(=O)[C@H](CN)NC(=O)CSC[C@@H](C(=O)N[C@@H](C)C(N)=O)NC(=O)[C@H]([C@@H](C)O)NC(=O)[C@H](C(C)C)NC(=O)[C@H](CC2CCCCC2)NC(=O)[C@H](CCN)NC1=O [Compound 1578] ({CH2CO}-[Dap][4Pal]D[Phe(3-Cl)]V[Bip]V[Orn][dL][Dab][Cha]VTCA-NH2; thioether N-14) | 35
6 | CC(C)C[C@H]1NC(=O)[C@H](CCCN)NC(=O)[C@H](CCC(=O)O)NC(=O)[C@H](Cc2ccc(-c3ccccc3)cc2)NC(=O)[C@H](C(C)C)NC(=O)[C@H](Cc2cccnc2)NC(=O)[C@H](CC(=O)O)NC(=O)[C@H](Cc2ccc(OCC(=O)O)cc2)NC(=O)[C@H](CN)NC(=O)CSC[C@@H](C(=O)N[C@@H](C)C(N)=O)NC(=O)[C@H]([C@@H](C)O)NC(=O)[C@H](C(C)C)NC(=O)[C@H](CC2CCCCC2)NC(=O)[C@H](CCN)NC1=O [Compound 2156] ({CH2CO}-[Dap]Y(Carboxymethyl)D[3Pal]V[Bip]E[Orn][dL][Dab][Cha]VTCA-NH2; thioether N-14) | 322
7 | CC(C)C[C@@H]1NC(=O)[C@H](Cc2c[nH]c3ccccc23)NC(=O)[C@H](CC(=O)O)NC(=O)[C@H](Cc2ccc(O)cc2)NC(=O)[C@H](Cc2ccccc2)NC(=O)CSC[C@@H](C(=O)NCC(N)=O)NC(=O)[C@H]([C@@H](C)O)NC(=O)[C@H](C(C)C)NC(=O)[C@H](CC(C)C)NC(=O)[C@H](CC(N)=O)NC(=O)[C@@H](CC(C)C)NC(=O)[C@H](CCCN)NC(=O)[C@H](C(C)C)NC(=O)[C@H](Cc2ccc(-c3ccccc3)cc2)NC1=O [Compound 1064] ({CH2CO}-FYDWL[Bip]V[Orn][dL]NLVTCG-NH2; thioether N-14) | 51.3
8 | Cc1cccc(C[C@@H]2NC(=O)[C@H](CC(=O)O)NC(=O)[C@H](Cc3ccc(OCC(=O)O)cc3)NC(=O)[C@H](Cc3ccc(C(F)(F)F)cc3)NC(=O)CSC[C@@H](C(=O)N[C@@H](CCN)C(N)=O)NC(=O)[C@H](CCC(=O)O)NC(=O)[C@H](C(C)(C)O)NC(=O)[C@H](CC3CCCCC3)NC(=O)[C@H](CCN)NC(=O)[C@@H](CC(C)C)NC(=O)[C@H](CCCN)NC(=O)[C@H](Cc3ccc(OCC(=O)O)cc3)NC(=O)[C@H](Cc3ccc(-c4ccccc4)cc3)NC(=O)[C@H](Cc3ccc(OCC(=O)O)cc3)NC2=O)c1 [Compound 2691] ({CH2CO}-[Phe(4-CF3)]Y(Carboxymethyl)D[Phe(3-Me)]Y(Carboxymethyl)[Bip]Y(Carboxymethyl)[Orn][dL][Dab][Cha][Val(3-OH)]EC[Dab]-NH2; thioether N-14) | 6.8
9 | CC(C)C[C@H]1NC(=O)[C@H](CCCN)NC(=O)[C@H](CCCNC(N)=O)NC(=O)[C@H](Cc2ccc(-c3ccccc3)cc2)NC(=O)[C@H](C(C)C)NC(=O)[C@H](Cc2c[nH]c3ccccc23)NC(=O)[C@H](CC(=O)O)NC(=O)[C@H](Cc2ccc(O)cc2)NC(=O)[C@H](CC(N)=O)NC(=O)CSC[C@@H](C(=O)N[C@@H](C)C(N)=O)NC(=O)[C@H]([C@@H](C)O)NC(=O)[C@H](C(C)C)NC(=O)[C@H](CC2CCCCC2)NC(=O)[C@H](CCN)NC1=O [Compound 1161] ({CH2CO}-NYDWV[Bip][Cit][Orn][dL][Dab][Cha]VTCA-NH2; thioether N-14) | 16.1
10 | CC(C)C[C@@H]1NC(=O)[C@H](Cc2c[nH]c3ccccc23)NC(=O)[C@H](CC(=O)O)NC(=O)[C@H](Cc2ccncc2)NC(=O)[C@H](Cc2ccc(OCC(=O)O)cc2)NC(=O)CSC[C@@H](C(=O)NCC(N)=O)NC(=O)[C@H](CO)NC(=O)[C@H](C(C)C)NC(=O)[C@H](CC2CCCCC2)NC(=O)[C@H](CC(N)=O)NC(=O)[C@@H](CC(C)C)NC(=O)[C@H](CN)NC(=O)[C@H](C(C)C)NC(=O)[C@H](Cc2ccc(-c3ccccc3)cc2)NC1=O [Compound 1396] ({CH2CO}-Y(Carboxymethyl)[4Pal]DWL[Bip]V[Dap][dL]N[Cha]VSCG-NH2; thioether N-14) | 21.4
11 | CC[C@H](C)[C@@H]1NC(=O)[C@H](Cc2ccc(-c3ccccc3)cc2)NC(=O)[C@H](C(C)C)NC(=O)[C@H](Cc2c[nH]c3ccccc23)NC(=O)[C@H](CC(=O)O)NC(=O)[C@H](Cc2ccc(O)cc2)NC(=O)[C@H](Cc2ccc(OCC(=O)O)cc2)NC(=O)CSC[C@@H](C(=O)N[C@@H](C)C(N)=O)NC(=O)[C@H]([C@@H](C)O)NC(=O)[C@H](C(C)C)NC(=O)[C@H](CC2CCCCC2)NC(=O)[C@H](CCCNC(=N)N)NC(=O)[C@@H](CC(C)C)NC(=O)[C@H](CCCN)NC1=O [Compound 1146] ({CH2CO}-Y(Carboxymethyl)YDWV[Bip]I[Orn][dL]R[Cha]VTCA-NH2; thioether N-14) | 42.3
12 | C#CC[C@H](NC(=O)CNC(=O)[C@@H]1CSCC(=O)N[C@@H](CN)C(=O)N[C@@H](Cc2ccc(OCC(=O)O)cc2)C(=O)N[C@@H](CC(=O)O)C(=O)N[C@@H](Cc2cccc(C)c2)C(=O)N[C@@H](C(C)C)C(=O)N[C@@H](Cc2ccc(-c3ccccc3)cc2)C(=O)N[C@@H](CCCNC(N)=O)C(=O)N[C@@H](CCCN)C(=O)N[C@H](CC(C)C)C(=O)N[C@@H](CCN)C(=O)N[C@@H](CC2CCCCC2)C(=O)N[C@@H](C(C)C)C(=O)N[C@@H]([C@@H](C)O)C(=O)N1)C(=O)O [Compound 2260] ({CH2CO}-[Dap]Y(Carboxymethyl)D[Phe(3-Me)]V[Bip][Cit][Orn][dL][Dab][Cha]VTCG[Pra]-OH; thioether N-14) | 28.1
13 | CC(C)C[C@H]1NC(=O)[C@H](CCCN)NC(=O)[C@H](CCCNC(N)=O)NC(=O)[C@H](Cc2ccc(-c3ccccc3)cc2)NC(=O)[C@H](C(C)C)NC(=O)[C@H](Cc2c[nH]c3ccccc23)NC(=O)[C@H](CC(=O)O)NC(=O)[C@H](Cc2ccc(Cl)c(Cl)c2)NC(=O)[C@H](CN)NC(=O)CSC[C@@H](C(=O)N[C@@H](C)C(N)=O)NC(=O)[C@H]([C@@H](C)O)NC(=O)[C@H](C(C)C)NC(=O)[C@H](CC2CCCCC2)NC(=O)[C@H](CCN)NC1=O [Compound 2130] ({CH2CO}-[Dap][Phe(3,4-Cl2)]DWV[Bip][Cit][Orn][dL][Dab][Cha]VTCA-NH2; thioether N-14) | 96.6
14 | CC(C)C[C@H]1NC(=O)[C@H](CCCN)NC(=O)[C@H](Cc2ccc(C(=O)O)cc2)NC(=O)[C@H](Cc2ccc(-c3ccccc3)cc2)NC(=O)[C@H](Cc2csc3ccccc23)NC(=O)[C@H](Cc2cccc(C(F)(F)F)c2)NC(=O)[C@H](CC(=O)O)NC(=O)[C@H](Cc2ccc(C(=O)O)cc2)NC(=O)[C@H](CN2CCOCC2)NC(=O)CSC[C@@H](C(=O)N[C@@H](CCN)C(N)=O)NC(=O)[C@H](CCC(=O)O)NC(=O)[C@H](C(C)C)NC(=O)[C@H](CC2CCCCC2)NC(=O)[C@H](CCN)NC1=O [Example 2739] ({CH2CO}-[Ala(morpholin-4-yl)][Phe(4-COOH)]D[Phe(3-CF3)][Bta][Bip][Phe(4-COOH)][Orn][dL][Dab][Cha]VEC[Dab]-NH2; thioether N-14) | 3.2

— patent US20250163104A1, “MACROCYCLIC IMMUNOMODULATORS” (priority 2021, published 2025)
